According to US20060287316A1, “METHOD FOR IMPROVING PHARMACOKINETICS OF PROTEASE INHIBITORS AND PROTEASE INHIBITOR PRECURSORS” (priority 2005, published 2006):
Converted amounts (≈) assume the structure as drawn. Read-outs that look alike come from different tables or passages of the source.

Experiments:
[1] = Plasma concentration after single oral dose in rats (in vivo cleavage of the phosphate group); parameters: species or system male Sprague-Dawley rats; details: for AUC: 50 mg/Kg po, vehicle PBS, 3 rats, released active ingredient detected (PL-100 for PL-462, PL-337 for PL-515); for Detection of the administered phosphate compound in blood samples: 50 mg/kg po as aqueous solution
Procedure: To assess the extent of in vivo cleavage of the phosphate group from the putative compounds, PL-100, PL-462 (based on PL-100), PL-337 and PL-515 (based on PL-337) compounds were administered po (per os, (i.e., by mouth)) (50 mg/kg) to male Sprague-Dawley rats and their plasma concentration measured at different time intervals post-administration.
All test articles (PL-100, PL-462, PL-337 and PL-515) were prepared in different vehicle at the final concentration of 25 mg/mL. The vehicle composition is as follows: (1) 20% ethanol; 50% propylene glycol; 0.05% w/v Tween 20 and water (Mix); (2) PBS buffer (PBS).
Test articles were administered to male Sprague-Dawley rats at a single oral dose of 50 mg/kg. Each article was tested in three rats. Blood samples (0.2-0.3 mL) were collected at the post-dose time of 10, 20, 40, 60, 120, 180 and 360 minutes. The harvested blood was centrifuged to isolate plasma. The resulting plasma was separated and stored at −70° C.
Plasma samples together with standards and quality control samples were treated to precipitate proteins, then analyzed by HPLC-MS, for the presence of PL-462, PL-100, PL-515 and PL-337.

[2] = tested on: laboratory adapted HIV strain (NL4-3); experiment: microbe, parasite or virus in culture; details: for EC50: Human immunodeficiency virus 1, NL43, MT4, MT4 cells infected with NL4-3; for SI (CC50/EC50): ratio of cytotoxicity (CC50) to antiviral activity (EC50)
Procedure: Briefly, the antiviral activity of PL-100 was determined using MT4 cells infected with a laboratory adapted HIV strain (NL4-3). For comparison, seven approved protease inhibitors (PIs) were tested in parallel.
The effect of 40% human serum on the antiviral activity of PL-100 in MT4 cells infected with NL4-3 was therefore evaluated.

[3] = Cytotoxicity in the same cell culture system; type: cell-based; details: human, MT4 cells
Procedure: Cytotoxicity of PL-100 and other P is was evaluated in the same cell culture system. The selectivity index (SI) is the ratio of cytotoxicity (CC50) to antiviral activity (EC50). The selective index is similar to the therapeutic index but relates to in vitro studies.

[4] = tested on: 63 HIV isolates with reduced susceptibility to all approved protease inhibitors; type: cell-based, HIV-1; details: for % FC < 2.5 / % FC < 10 / % FC > 50 / Mean FC / Median FC: 63 diverse, multi-PI-resistant strains; for Mean FC / Median FC: FC in IC50 vs NL-4.3
Description: The cross-resistance profile of PL-100 against 63 HIV isolates with reduced susceptibility to all approved protease inhibitors (P is) including atazanavir was thus tested.
The panel of 63 viral strains was selected based on the following rationale: 1) High-level loss of susceptibility to specific P is; 2) High-level loss of susceptibility to multiple P is; 3) Good representation of the primary mutations. This panel consists of resistant viruses from highly PI-experienced patients with high-level PI resistance.
The genotype of these viruses encompasses a wide variety of mutational patterns. We particularly looked for the following primary PI mutations: D30N, L33F/I, M461/L, G48V, I50L/V, V82A/F/S/T, I84V and L90M as defined by the International AIDS Society (IAS)-USA.
The dark cells indicate a […], the grey cells indicate FC values of 2.5≦FC<10 and the white cells indicate a FC value of; 0≦FC<2.5. The results of cross-resistance profile are further illustrated in the graph of FIG. 1.
In the cross-resistance profiling studies against the 63 resistant strains mentioned herein, EC95 of PL-100 was determined against each strain. The median EC95 represents the concentration required to inhibit 95% of the viral replication of 50% diverse drug-resistant HIV-1 variants tested. Table 8 illustrates the percentage of resistant strains tested with protein-binding adjusted EC95s≦200 ng/ml. The resistant strains are grouped by the number of primary mutations they have.
The EC95 of PL-100 was determined against each of the 63 resistant strains indicated herein. Table 9 illustrates the percentage of resistant strains tested with protein-binding adjusted EC95s≦630 ng/ml. The resistant strains are grouped by the number of primary mutations they have.

Water solubility = type: physicochemical
[5] = Pharmacokinetics of PL-100 and PL-461 in rats; type: in vivo, Sprague Dawley rats (Rattus norvegicus)
Procedure: Animal tested are Sprague Dawley rats (species Rattus norvegicus) of 6-7 weeks old at the start of dosing and were obtained from Charles River (Montreal, Canada). The study usually comprises about 6 animals per groups. […] The rats were fasted 3 h. before dosing and 3 h. after dosing. The formulations are prepared as indicated below. The solutions are stable at room temperature over a week and are covered with aluminum foil to avoid lights. […] The dosing volume for all formulations is 2 mL per kg body weight. Blood sample was collected at 15 min, 30 min, 45 min, 1 […] after the dosing. Blood samples were centrifuged to separate the plasma and separated plasma samples were placed into cryovials and frozen at -80° C. for further analysis. Plasma samples together with standards and quality control samples were treated by protein precipitation and then analyzed by HPLC-MS. […] The PK profile was obtained by administration of the test drugs; PL-100 and PL-461 in rats. […] The pharmacokinetic parameters of PL-100 and PL-461 in rats** was compared.

[6] = Study 4: ritonavir administered first, PL-461 15 or 30 minutes later; type: in vivo, Sprague Dawley rats; details: test compound 15 or 30 minutes later, compared with the method of studies 1-3
[7] = sample O3-148709 (non-B subtype), 32I/47A, panel ID 1
[8] = sample O4-148748, 37S/41K/70E, panel ID 115
[9] = sample O4-148749, 37T/41K/70E, panel ID 151
[10] = sample O3-129578, 46I/82T/84V, panel ID 11
[11] = sample O4-148713, 46I/88S, panel ID 123
[12] = sample O4-148712, 46I/88S, panel ID 122

Structure (SMILES) | EC50 [2] [µM] | SI (CC50/EC50) [2] | CC50 [3] [µM] | % FC < 2.5 [4] [%] | % FC < 10 [4] [%] | % FC > 50 [4] [%] | Mean FC [4] | Median FC [4] | Fold change in IC50 vs. Reference [4, 8] | Fold change in IC50 vs. Reference [4, 9] | Fold change in IC50 vs. Reference [4, 11] | other results
COC(=O)N[C@H](C(=O)NCCCC[C@@H](COP(=O)(O)O)N(CC(C)C)S(=O)(=O)c1ccc(N)cc1)C(c1ccccc1)c1ccccc1.[Na] [PL-462, (1S,5S)-(1-{5-[(4-amino-benzenesulfonyl)-isobutyl-amino]-6-phosphonooxy-hexylcarbamoyl}-2,2-diphenyl-ethyl)-carbamic Acid Methyl Ester Sodium Salt] | – | – | – | – | – | – | – | – | – | – | – | AUC [1]: 0.816 ± 0.295 μg/hr * ml; Detection of the administered phosphate compound in blood samples [1]: None of the PL-462 and PL-515 compounds, delivered as aqueous solutions, are detected
COC(=O)N[C@H](C(=O)N[C@@H](Cc1ccccc1)[C@@H](O)CN(Cc1ccc(-c2ccccn2)cc1)NC(=O)[C@@H](NC(=O)OC)C(C)(C)C)C(C)(C)C [Atazanavir] | 0.004 | 13,750 | 55 | 16 | 38 | 22 | 25.7 | 15.6 | 1.4 | 1.5 | – | Fold change in IC50 vs. Reference [4, 7]: 1
CC(C)CN(C[C@@H](O)[C@H](Cc1ccccc1)NC(=O)O[C@H]1CCOC1)S(=O)(=O)c1ccc(N)cc1 [Amprenavir] | 0.047 | – | > 100 | 14 | 52 | 8 | 18.5 | 9.7 | – | – | – | –
CC(C)c1nc(CN(C)C(=O)N[C@H](C(=O)N[C@@H](Cc2ccccc2)C[C@H](O)[C@H](Cc2ccccc2)NC(=O)OCc2cncs2)C(C)C)cs1 [Ritonavir, ritonavir] | 0.061 | – | – | – | – | – | – | – | – | – | – | –
COC(=O)N[C@H](C(=O)NCCCC[C@@H](COP(=O)(O)O)N(CC(C)C)S(=O)(=O)c1ccc(N)cc1)C(c1ccccc1)c1ccccc1 [PL-461, (1S,5S)-(1-{5-[(4-amino-benzenesulfonyl)-isobutyl-amino]-6-phosphonooxy-hexylcarbamoyl}-2,2-diphenyl-ethyl)-carbamic acid methyl ester] | – | – | – | – | – | – | – | – | – | – | – | Fold more water soluble than PL-100 (Water solubility): > 1800 fold; Water solubility (Water solubility; acidic conditions (FIG. 4)): moderate water solubility; Water solubility (Water solubility; pH>4.5 (FIG. 4)): increases dramatically; solubility (Water solubility; water, pH 7.5, aqueous buffer): 145 mg/mL (≈ 206 mM); Fold improved oral bioavailability over PL-100 ([5]; female, Sprague Dawley, rat, in vivo, po): 2-3 fold; Plasma levels of the Lysine-based compound ([5]; rats, after oral dosing, compared to plasma levels of PL-100): insignificant or under detection limits; Increase of pharmacokinetics by sequential administration [6]: as efficient at increasing the pharmacokinetics
Cc1c(O)cccc1C(=O)N[C@@H](CSc1ccccc1)[C@H](O)CN1C[C@H]2CCCC[C@H]2C[C@H]1C(=O)NC(C)(C)C [Nelfinavir] | 0.029 | 276 | 8 | 10 | 27 | 10 | 31.7 | 15 | 1.6 | 1.9 | 4.6 | Fold change in IC50 vs. Reference [4, 10]: 1.6
CC(C)(C)NC(=O)[C@@H]1C[C@@H]2CCCC[C@@H]2CN1C[C@@H](O)[C@H](Cc1ccccc1)NC(=O)[C@H](CC(N)=O)NC(=O)c1ccc2ccccc2n1 [Saquinavir] | 0.012 | 1,583 | 19 | 27 | 40 | 37 | 85 | 23.2 | 1.2 | 1.2 | 0.6 | Fold change in IC50 vs. Reference ([4]; sample O3-129573, 24I/33F/46I/54L/82A, panel ID 3): 1.5; Fold change in IC50 vs. Reference [4, 10]: 1; Fold change in IC50 vs. Reference ([4]; sample O3-129584, 33F/50V, panel ID 24): 1.7; Fold change in IC50 vs. Reference [4, 7]: 0.2; Fold change in IC50 vs. Reference ([4]; sample O4-148711, 46I/47A/84V, panel ID 119): 1.1; Fold change in IC50 vs. Reference [4, 12]: 1.9; Fold change in IC50 vs. Reference ([4]; sample O4-148712, 46I/88S, panel ID 124): 2; Fold change in IC50 vs. Reference ([4]; sample O4-148721, 32I/46I/47V/50L, panel ID 127): 0.5; Fold change in IC50 vs. Reference ([4]; sample O4-148725, 32I/46L/47V/84V, panel ID 53): 0.8; Fold change in IC50 vs. Reference ([4]; sample O4-148745, 46I/50L/54V/82A, panel ID 99): 2.2
COC(=O)N[C@H](C(=O)NCCCC[C@@H](COP(=O)(O)O)N(CC(C)C)S(=O)(=O)c1ccc(N)c(F)c1)C(c1ccccc1)c1ccccc1 [PL-515, (1S,5S)-(1-{5-[(4-amino-3-fluoro-benzenesulfonyl)-isobutyl-amino]-6-phosphonooxy-hexylcarbamoyl}-2,2-diphenyl-ethyl)-carbamic acid methyl ester] | – | – | – | – | – | – | – | – | – | – | – | AUC [1]: 1.075 ± 0.625 μg/hr * ml; Detection of the administered phosphate compound in blood samples [1]: None of the PL-462 and PL-515 compounds, delivered as aqueous solutions, are detected
Cc1cccc(C)c1OCC(=O)N[C@@H](Cc1ccccc1)[C@@H](O)C[C@H](Cc1ccccc1)NC(=O)[C@H](C(C)C)N1CCCNC1=O [Lopinavir] | 0.019 | 1,474 | 28 | 10 | 37 | 19 | 31.3 | 17.9 | 1 | 1.3 | 0.7 | Fold change in IC50 vs. Reference ([4]; sample O3-129586, 30N/88D/90M, panel ID 28): 1.2; Fold change in IC50 vs. Reference [4, 12]: 1.7
CC(C)(C)NC(=O)[C@@H]1CN(Cc2cccnc2)CCN1C[C@@H](O)C[C@@H](Cc1ccccc1)C(=O)N[C@H]1c2ccccc2C[C@H]1O [Indinavir] | 0.067 | – | > 100 | 13 | 54 | 5 | 16.5 | 8.1 | – | – | – | –
